Patent US20230357320A1, “HELICAL STAPLED PEPTIDES AND USES THEREOF” (FOG PHARMACEUTICALS, INC., priority 2020, published 2023)
Where two headings read alike, the source gives them in different places. Starred links: 1 amine or outer side, 2 acyl side, 3 side chain; linkers in the order of their positions; H or OH if unused. Positions of bridges follow the written chain, without caps; N, C: chain ends. Non-standard residues stand in square brackets, D forms with d. Residues, ends and D or L forms follow the SMILES beside them. X1 = O=C([C@]1(CC=[*:3])CCCN1[*:1])[*:2]; Ala(cPr) = N[C@@H](CC1CC1)C(=O)O; S5 = C=CCCC[C@](C)(N)C(=O)O; Nle = CCCC[C@H](N)C(=O)O

How the values were obtained:
ERβ LBD = biological target: T1, ERβ LBD (Homo sapiens, UniProt Q92731); assay: Competition fluorescence polarization (FP) binding assay with FITC-ERL4 probe; conditions: read-out: EC50
T1 construct: pET28a+ vector containing ERβ LBD (residues from 261 to 500) along with an N-terminal His6-yBBr-TEV tag; His6 (N); yBBr (N); TEV cleavage site (N); made in house; host or cells: E. coli BL21(DE3) pLysS
Description: In addition to the PAMPA assay, to study the affinity of the first-generation ProLock™ stapled peptides to the Estrogen receptor p ligand-binding domain (ERβ LBD), a fluorescence polarization (FP) binding assay in competition format was used in the presence of the endogenous ERβ LBD ligand estradiol. Competition Fluorescence Polarization (FP) assay was performed on the peptides to determine their half-maximal effective concentration (EC50). To do this, FITC labeled ERL4 peptide (FITC-βAla-His-Pro-Leu-Leu-Nle-Arg-Leu-Leu-Leu-Ser-Pro-CONH2) was synthesized to be used as a fluorescence probe based on existing literature (Fuchs et al., Journal of the American Chemical Society 2013, 135 (11), 4364-4371). Direct FP was performed in black 384-well plates (Corning). The final volume of each assay well was 40 μL with constant concentration of FITC labeled ERL4 peptide (10 nM) and variable concentrations of ERβ LBD protein.
ERβ LBD expression and purification was performed as follows. BL21(DE3) pLysS E. coli cells were transformed with a pET28a+ vector containing ERβ LBD (residues from 261 to 500) along with an N-terminal His6-yBBr-TEV tag. An overnight culture in 10 mL of TB media containing 50 μg/mL kanamycin was prepared from a single bacterial colony. The overnight culture was subsequently added to 1 liter of autoclaved TB media containing 50 μg/mL kanamycin and shaken at 37° C. until an OD of 0.6-0.8 was reached. IPTG was added to the culture and left shaking for 6 hours. Bacterial culture was pelleted and resuspended in lysis buffer. Resuspended bacterial culture was incubated at 0° C. for 10 minutes before sonication at 65% amplitude with 10-sec cycles using a Branson Sonifier. The lysate was then cleared by centrifugation at 8000×g for 20 min. […] The expected molecular weight of the ERβ LBD protein is 30.8 KDa, which molecular weight was confirmed by SDS PAGE analysis. Purified ERβ LBD was concentrated to 90 μM and was stored at −80° C. buffer.
Competition FP assays were also employed. These were performed in black 384-well plates (Corning). The final volume of each assay well was 80 μL containing constant concentrations of estradiol (1 μM) and FITC labeled ERL4 (10 nM). The ERβ LBD concentration was held constant (200 nM) while varying the concentration of ProLock stapled peptides (3-fold dilution from 10 μM). Upon addition of samples to each well, the plate was centrifuged for 10 seconds at 3000 rpm and incubated at 4° C. for 1 hour. FP measurements were performed at room temperature with excitation and emission wavelengths at 485 and 535 nm using a Clariostar microplate reader (BMG Labtech). Each plate had high and low polarization samples, which are used to normalize the assay data. The competition FP results were analyzed by Prism 7 (GraphPad). The non-linear regression analysis of the data was used to determine the half-maximal effective concentration (EC50) of ProLock stapled peptides. […] The normalized FP values shown in FIG. 6 are mean±S.E.M of at least four independent replicates.

[1] = for % Retention: PAMPA
in vitro = assay: in vitro; parameters: dose or concentration left out as unconfirmed; conditions: PAMPA, pH 7.4, PAMPA Pe
[2] = CHI Log D measurement (chromatographic hydrophobicity index); conditions: pH 7.4
Description: Finally, to measure hydrophobicity, a CHI Log D measurement assay was employed. […] The retention time measurements were performed using reverse-phase HPLC and Q-Exactive mass spectrometer with Phenomenex Gemini C-18 column (3 uM, 50×3 mm). The reverse-phase chromatography was performed using a gradient of 10 mM ammonium acetate at pH=7.4 and acetonitrile solvents. Using the identical solvent setup, gradient, and flowrate, ProLock stapled peptides were injected onto the column to determine the tR of peptides. Using the calibration curve shown in FIG. 7, tR is converted into CHI. CHI was converted into CHI Log D using the following equation.

[3] = Table 4, binding to ER LBD, estradiol 1 μM, FITC-ERL4 10 nM, ERβ LBD 200 nM, mean ± S.E.M, at least four replicates
[4] = reverse-phase HPLC, Phenomenex Gemini C-18 column
[5] = Table 2, binding to ER LBD, estradiol 1 μM, FITC-ERL4 10 nM, ERβ LBD 200 nM, mean ± S.E.M, at least four replicates
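Wherever % Retention is given: Phospholipid-membrane PAMPA, donor and acceptor in DPBS pH 7.4 with 5% DMSO, 37 °C for 5 h, compound in each well quantified by reverse-phase HPLC-MS.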
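Wherever PAMPA Pe (text) is given: Phospholipid-membrane PAMPA, donor and acceptor in DPBS pH 7.4 with 5% DMSO, 37 °C for 5 h, compound in each well quantified by reverse-phase HPLC-MS.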
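Wherever PAMPA Pe is given: Phospholipid-membrane PAMPA, donor and acceptor in DPBS pH 7.4 with 5% DMSO, 37 °C for 5 h, compound in each well quantified by reverse-phase HPLC-MS.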
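Wherever Papp is given: Phospholipid-membrane PAMPA, donor and acceptor in DPBS pH 7.4 with 5% DMSO, 37 °C for 5 h, compound in each well quantified by reverse-phase HPLC-MS.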

Compound | EC50 (ERβ LBD; [3]) | % Retention [1] | Papp at 5 h (in vitro) | chromatographic logD [2, 4] | chromatographic logD [2] | EC50 (ERβ LBD; binding towards the ERβ LBD) | PAMPA Pe [1] | EC50 (ERβ LBD; [5]) | PAMPA Pe (text) [1]
CNC(=O)[C@H](CC(=O)O)NC(=O)[C@H](CCC(N)=O)NC(=O)[C@H](CC(C)C)NC(=O)[C@H](CC(C)C)NC(=O)[C@H](CCCNC(=N)N)NC(=O)[C@]1(C)CCCC=CC[C@]2(CCCN2C(C)=O)C(=O)N[C@@H](CC2CC2)C(=O)N[C@@H](CC(C)C)C(=O)N1 [PLL7-5, Ac-PL3-Cpa-Leu-S5-Arg-Leu-Leu-Gln-Asp-NHMe] (Ac-[X1][Ala(cPr)]L[S5]RLLQD-NHMe; staple 1-4) | 4.1 ± 0.3 µM | 109 ± 2% | 0.8 ± 0.2 ×10⁻⁶ cm/s | 2 |  |  |  |  | 
CNC(=O)[C@H](Cc1c[nH]cn1)NC(=O)[C@H](CC(C)C)NC(=O)[C@H](CC(C)C)NC(=O)[C@H](Cc1ccc(O)cc1)NC(=O)[C@]1(C)CCCC=CC[C@]2(CCCN2C(C)=O)C(=O)N[C@@H](CC(C)C)C(=O)N[C@@H](CC(C)C)C(=O)N1 (single isomer, unassigned) [PLL5-11, Ac-PL3-Leu-Leu-S5-Tyr-Leu-Leu-His-NHMe] | > 10 µM | 89 ± 1% | ≤ 0.1 ×10⁻⁶ cm/s |  | 3.2 |  |  |  | 
CNC(=O)[C@H](CC(=O)O)NC(=O)[C@H](CC(=O)O)NC(=O)[C@H](CC(C)C)NC(=O)[C@H](CC(C)C)NC(=O)[C@H](Cc1ccc(O)cc1)NC(=O)[C@]1(C)CCCC=CC[C@]2(CCCN2C(C)=O)C(=O)N[C@@H](CC(C)C)C(=O)N[C@@H](CC(C)C)C(=O)N1 [PLL5-2, Ac-PL3-Leu-Leu-S5-Tyr-Leu-Leu-Asp-Asp-NHMe] (Ac-[X1]LL[S5]YLLDD-NHMe; staple 1-4) |  | 97 ± 2% | 1.6 ± 0.1 ×10⁻⁶ cm/s | 1.7 |  | 0.8 to 1.3 µM | 1.6 ± 0.1 (×10^−6) cm/sec |  | 
CNC(=O)[C@@H](NC(=O)[C@H](CC(C)C)NC(=O)[C@H](CC(C)C)NC(=O)[C@H](CC1CC1)NC(=O)[C@]1(C)CCCC=CC[C@]2(CCCN2C(C)=O)C(=O)N[C@@H]([C@@H](C)O)C(=O)N[C@@H](CC(C)C)C(=O)N1)[C@@H](C)O [PLL7-23, Ac-PL3-Thr-Leu-S5-Cpa-Leu-Leu-Thr-NHMe] (Ac-[X1]TL[S5][Ala(cPr)]LLT-NHMe; staple 1-4) | 2.4 ± 0.1 µM | 92 ± 2% | < 0.1 ×10⁻⁶ cm/s | 3.2 |  |  |  |  | 
CNC(=O)[C@H](CC(=O)O)NC(=O)[C@H](CC(C)C)NC(=O)[C@H](CC(C)C)NC(=O)[C@H](Cc1ccc(O)cc1)NC(=O)[C@H](CCCNC(=N)N)NC(=O)[C@]1(C)CCCC=CC[C@]2(CCCN2C(C)=O)C(=O)N[C@@H](C)C(=O)N[C@@H](CC(C)C)C(=O)N1 [PLL4-4, Ac-PL3-Ala-Leu-S5-Arg-Tyr-Leu-Leu-Asp-NHMe] (Ac-[X1]AL[S5]RYLLD-NHMe; staple 1-4) |  | 71 ± 2% | 0.5 ± 0.1 ×10⁻⁶ cm/s | 2.3 |  |  |  | 7.9 ± 0.4 µM | 0.3-0.7 ×10^−6 cm/sec
CCCC[C@H](NC(=O)[C@]1(C)CCCC=CC[C@]2(CCCN2C(C)=O)C(=O)N[C@@H](CC(C)C)C(=O)N[C@@H](CCCNC(=N)N)C(=O)N1)C(=O)N[C@@H](CC(C)C)C(=O)N[C@@H](C)C(=O)N[C@@H](Cc1ccc(O)cc1)C(=O)NC [PLL4-12, Ac-PL3-Leu-Arg-S5-Nle-Leu-Ala-Tyr-NHMe] (Ac-[X1]LR[S5][Nle]LAY-NHMe; staple 1-4) |  | 42 ± 2% | ≤ 0.1 ×10⁻⁶ cm/s | 2.7 |  |  |  | 7.5 ± 0.4 µM | 
CNC(=O)[C@H](CC(=O)O)NC(=O)[C@H](CC(C)C)NC(=O)[C@H](CC(C)C)NC(=O)[C@H](CCCNC(=N)N)NC(=O)[C@]1(C)CCCC=CC[C@]2(CCCN2C(C)=O)C(=O)N[C@@H](CC(C)C)C(=O)N[C@@H](CC(C)C)C(=O)N1 [PLL5-8, Ac-PL3-Leu-Leu-S5-Arg-Leu-Leu-Asp-NHMe] (Ac-[X1]LL[S5]RLLD-NHMe; staple 1-4) | 7.9 ± 0.4 µM | 104 ± 3% | 0.9 ± 0.2 ×10⁻⁶ cm/s | 2.1 |  |  |  |  | 
CC[C@H](C)[C@@H]1NC(=O)[C@]2(CC=CCCC[C@@](C)(C(=O)N[C@@H](Cc3ccc(O)cc3)C(=O)N[C@@H](CC(C)C)C(=O)N[C@@H](CC(C)C)C(=O)N[C@@H](CC(=O)O)C(=O)NC)NC(=O)[C@H](CC(C)C)NC1=O)CCCN2C(C)=O [PLL5-4, Ac-PL3-Ile-Leu-S5-Tyr-Leu-Leu-Asp-NHMe] (Ac-[X1]IL[S5]YLLD-NHMe; staple 1-4) | 1.3 ± 0.1 µM | 100 ± 1% | 0.3 ± 0.1 ×10⁻⁶ cm/s | 2.4 |  |  |  |  | 
CNC(=O)[C@@H](NC(=O)[C@H](CC(C)C)NC(=O)[C@H](CC(C)C)NC(=O)[C@H](Cc1ccc(O)cc1)NC(=O)[C@]1(C)CCCC=CC[C@]2(CCCN2C(C)=O)C(=O)N[C@@H](CC(C)C)C(=O)N[C@@H](CC(C)C)C(=O)N1)[C@@H](C)O [PLL5-10, Ac-PL3-Leu-Leu-S5-Tyr-Leu-Leu-Thr-NHMe] (Ac-[X1]LL[S5]YLLT-NHMe; staple 1-4) | 1.5 ± 0.2 µM | 34 ± 0% | ≤ 0.1 ×10⁻⁶ cm/s | 3.8 |  |  |  |  | 
CNC(=O)[C@H](CC(=O)O)NC(=O)[C@H](CC(C)C)NC(=O)[C@H](CC(C)C)NC(=O)[C@H](Cc1ccc(O)cc1)NC(=O)[C@]1(C)CCCC=CC[C@]2(CCCN2C(C)=O)C(=O)N[C@@H](CCCCN)C(=O)N[C@@H](CC(C)C)C(=O)N1 (single isomer, unassigned) [PLL5-6, Ac-PL3-Lys-Leu-S5-Tyr-Leu-Leu-Asp-NHMe] | > 10 µM | 105 ± 5% | 1.5 ± 0.2 ×10⁻⁶ cm/s |  | 1.2 |  |  |  | 
CNC(=O)[C@H](Cc1ccc(O)cc1)NC(=O)[C@H](CC(C)C)NC(=O)[C@H](CC(C)C)NC(=O)[C@H](Cc1c[nH]cn1)NC(=O)[C@H](CCCNC(=N)N)NC(=O)[C@]1(C)CCCC=CC[C@]2(CCCN2C(C)=O)C(=O)N[C@@H](CC(C)C)C(=O)N[C@@H](CC(C)C)C(=O)N1 [PLL4-2, Ac-PL3-Leu-Leu-S5-Arg-His-Leu-Leu-Tyr-NHMe] (Ac-[X1]LL[S5]RHLLY-NHMe; staple 1-4) |  | 43 ± 2% | ≤ 0.1 ×10⁻⁶ cm/s | 2.7 |  | 0.4 µM |  |  | 
CNC(=O)[C@H](CC(=O)O)NC(=O)[C@H](CC(=O)O)NC(=O)[C@H](CC(C)C)NC(=O)[C@H](CC(C)C)NC(=O)[C@H](Cc1ccc(O)cc1)NC(=O)[C@]1(C)CCCC=CC[C@]2(CCCN2C(C)=O)C(=O)N[C@@H]([C@@H](C)O)C(=O)N[C@@H](CC(C)C)C(=O)N1 (single isomer, unassigned) [PLL7-1, Ac-PL3-Thr-Leu-S5-Tyr-Leu-Leu-Asp-Asp-NHMe] | > 10 µM | 114 ± 3% | 2.1 ± 0.4 ×10⁻⁶ cm/s |  | 1 |  |  |  | 2.1e-06 cm/s
CNC(=O)[C@H](CC(N)=O)NC(=O)[C@H](CC(C)C)NC(=O)[C@H](CC(C)C)NC(=O)[C@H](Cc1c[nH]cn1)NC(=O)[C@]1(C)CCCC=CC[C@]2(CCCN2C(C)=O)C(=O)N[C@@H](C)C(=O)N[C@@H](CC(C)C)C(=O)N1 (single isomer, unassigned) [PLL7-20, Ac-PL3-Ala-Leu-S5-His-Leu-Leu-Asn-NHMe] | > 10 µM | 104 ± 2% | 1.3 ± 0.1 ×10⁻⁶ cm/s |  | 2.1 |  | 1.3 ± 0.1 (×10^−6) cm/sec |  | 
